From ChEMBL document CHEMBL3301361, “Experimental in vitro DMPK and physicochemical data on a set of publicly disclosed compounds”
Values after ≈ are worked out from the molar mass of the structure shown.

Legend:
[1] = physchem; conditions: octan-1-ol/water
[2] = in vitro; conditions: human, plasma
[3] = in vitro; conditions: SD, HW or BN, rat, plasma
[4] = in vitro; conditions: human
[5] = physchem; conditions: pH 7.4 buffer

Row | Compound | logD ([1]; pH 7.4, LogD7.4) | fraction unbound at 5 h ([2]; PPB) | fraction unbound at 5 h [3] | microsomal CLint ([4]; liver microsomes) [µL/min/mg] | solubility thermodynamic [5] [µM] | microsomal CLint ([4]; microsomes) [µL/min/mg] | logD ([1]; pH 7.4) | fraction unbound at 5 h [2]
1 | N#C[C@@]1(NC(=O)[C@@H](N)Cc2cccs2)C[C@@H]1c1ccccc1 | 1.3 | 0.46 | 0.344 | – | – | – | – | –
2 | Oc1nc2c(O)ccc(CCNCCCSCCOCCc3cccc4ccccc34)c2s1 | – | – | 0.0122 | 36 | – | – | – | –
3 | CC1(C)CNC(=O)c2sc(N3CCOCC3)nc2C1 | 1.29 | 0.701 | 0.517 | – | 251 (≈ 70.7 µg/mL) | – | – | –
4 | NC(=O)c1cc(C(N)=O)n(-c2cccc(-c3cc(C(F)(F)F)ccc3C(F)(F)F)c2)n1 | 3.4 | 0.0328 | 0.0568 | – | – | – | – | –
5 | CCN(CC)S(=O)(=O)c1ccc(-c2cc(C(F)(F)F)ccc2OCC(=O)O)cc1 | 0.67 | 0.0122 | 0.0179 | – | – | – | – | –
6 | O=C(NCCc1ccccc1)c1cc(-n2ncc(=O)[nH]c2=O)ccc1Cl | 0.74 | 0.0251 | 0.0391 | < 3 | – | – | – | –
7 | COC[C@@H](O)Cn1c(=O)cnn(-c2ccc(Cl)c(C(=O)NCC3(O)CCCCCC3)c2)c1=O | 1.44 | 0.586 | 0.608 | – | – | – | – | –
8 | Cc1nn(-c2ccccc2)c(NS(=O)(=O)C2CCCCC2)c1C(=O)N[C@@H](C)C(C)(C)C | 1.75 | 0.0149 | 0.0163 | – | 398 (≈ 178 µg/mL) | – | – | –
9 | Cc1c(Sc2ccc(Cl)cc2)c2c(-c3cnccn3)cccc2n1CC(=O)O | 0.03 | 0.0124 | 0.024 | – | – | 8 | – | –
10 | CCn1nc(C)c(C(=O)N[C@@H](C)C(C)(C)C)c1NS(=O)(=O)c1ccc(C)cc1 | 0.95 | 0.0163 | 0.0477 | – | – | – | – | –
11 | Cc1ccc(S(=O)(=O)Nc2c(C(=O)N[C@@H](C)C(C)(C)C)c(C)nn2C2CCC2)cc1 | 1.57 | 0.0183 | 0.0209 | – | – | 11 | – | –
12 | CN(C(=O)Cc1ccc(-n2cnnn2)cc1)C1CCN(Cc2ccc(C(F)(F)F)cc2)CC1 | – | 0.0872 | 0.0606 | – | 17.8 (≈ 8.16 µg/mL) | – | – | –
13 | COc1ccccc1CN(C(C)=O)c1cnccc1Oc1ccccc1 | 3 | 0.069 | 0.101 | – | – | – | – | –
14 | COc1cc(C)c(S(=O)(=O)N(C)CCOCC(=O)N2CCC(C3CCN(C)CC3)CC2)c(C)c1 | 0.3 | 0.483 | 0.511 | – | – | – | – | –
15 | O=C(NCc1ccc(OC(F)(F)F)cc1)C1c2ccccc2C(=O)N1C1CCOCC1 (stereo not drawn) | – | 0.0948 | 0.132 | – | 83.2 (≈ 36.1 µg/mL) | – | – | –
16 | Cc1nc(C)c(-c2ccc([C@H]3CC[C@H](CC(N)=O)CC3)cc2)nc1C(N)=O | 2.7 | 0.129 | 0.0556 | – | – | – | – | –
17 | C[C@@H]1CN(c2ccc3c(n2)NC(=O)CO3)[C@H](c2ccccc2)CO1 | 2.75 | 0.0633 | 0.0928 | – | – | – | – | –
18 | Cc1ccc(Sc2ccccc2CN(C)C)c(N)c1 | 2.6 | 0.11 | 0.0928 | – | – | – | – | –
19 | COc1ccccc1O[C@@H](c1ccccc1)[C@@H]1CNCCO1 | 0.9 | 0.309 | 0.768 | – | – | – | – | –
20 | CC(C)N1C(=O)[C@H](NC(=O)[C@@H](Cc2ccccc2OC(F)(F)F)NC(=O)OC(C)(C)C)CCc2ccccc21 | – | 0.003 | 0.003 | – | 5 (≈ 2.75 µg/mL) | – | – | –
21 | CCN1CCC[C@H]1CNC(=O)c1cc(Br)cc(OC)c1OC | 1.2 | 0.54 | 0.701 | – | – | – | – | –
22 | CN(C)C(=O)[C@H](O)[C@H](Cc1ccccc1)NC(=O)c1cc2cc(Cl)ccc2[nH]1 | 3.6 | 0.0219 | 0.0268 | – | 22.9 (≈ 9.16 µg/mL) | – | – | –
23 | C[C@H]([C@H](O)c1ccc(O)cc1)N1CCC(O)(c2ccccc2)CC1 | 0.91 | 0.681 | 0.608 | – | – | – | – | –
24 | CC(C)Oc1cc(Nc2nc(N[C@@H](C)c3ccc(F)cn3)nc(OC(CO)CO)c2Cl)n[nH]1 | 2.77 | 0.176 | 0.173 | – | – | – | – | –

Row | Compound | logD ([1]; pH 7.4, LogD7.4) | fraction unbound at 5 h ([2]; PPB) | fraction unbound at 5 h [3] | microsomal CLint ([4]; liver microsomes) [µL/min/mg] | solubility thermodynamic [5] [µM] | microsomal CLint ([4]; microsomes) [µL/min/mg] | logD ([1]; pH 7.4) | fraction unbound at 5 h [2]
25 | Cc1ccccc1CN1CCC(N2CCC(n3c(=O)[nH]c4ccccc43)CC2)CC1 | – | – | 0.299 | – | – | – | 2.68 | 0.355
26 | Clc1ccc2c(c1)C(N1CCNCC1)=Nc1ccccc1O2 [AMOXAPINE] | 2.28 | 0.11 | 0.101 | – | – | – | – | –
27 | CC(C(=O)O)c1cccc(Oc2ccccc2)c1 (stereo not drawn) [FENOPROFEN] | 0.71 | – | 0.0146 | 10.2 | – | – | – | –
28 | OCCN1CCN(CCCN2c3ccccc3Sc3ccc(C(F)(F)F)cc32)CC1 [FLUPHENAZINE] | – | – | 0.0119 | – | – | – | 3.8 | 0.0119
29 | CCOC(=O)Nc1ccc(NCc2ccc(F)cc2)nc1N [FLUPIRTINE] | 2.22 | 0.16 | 0.22 | – | – | – | – | –
30 | Cc1c(F)cc(C(=O)NC2CC2)cc1-c1ccc(C(=O)NCC(C)(C)C)cn1 [LOSMAPIMOD] | – | 0.119 | 0.0818 | – | – | – | – | –
31 | CNCCCC12CCC(c3ccccc31)c1ccccc12 [MAPROTILINE] | 0.89 | 0.126 | 0.0784 | – | – | – | – | –
32 | Cn1cc[nH]c1=S [METHIMAZOLE] | -0.42 | 0.81 | 0.814 | – | – | – | – | –
33 | O=C(O)c1cccnc1 [NIACIN] | – | 0.552 | 0.546 | – | – | – | – | –
34 | Cc1cc2c(s1)Nc1ccccc1N=C2N1CCN(C)CC1 [OLANZAPINE] | – | – | 0.124 | – | – | – | 2.19 | 0.107
35 | Fc1ccc([C@@H]2CCNC[C@H]2COc2ccc3c(c2)OCO3)cc1 [PAROXETINE] | 1.78 | 0.101 | 0.0532 | – | – | – | – | –
36 | O=C1NC(=O)C(c2ccccc2)(c2ccccc2)N1 [PHENYTOIN] | 2.41 | 0.129 | 0.179 | – | 79.4 (≈ 20 µg/mL) | – | – | –
37 | CNc1ccc(-c2nc3ccc(O)cc3s2)cc1 [PITTSBURGH COMPOUND B UNLABELLED] | – | 0.0111 | 0.0183 | – | – | – | – | –
38 | O=C(O)c1c(O)c(Cc2ccc(Cl)cc2)nc2c3c(ccc12)CCCC3 [PSI-697] | – | 0.0007 | 0.0014 | – | – | – | – | –
39 | CCc1nc(N)nc(N)c1-c1ccc(Cl)cc1 [PYRIMETHAMINE] | 2.31 | 0.0736 | 0.069 | – | – | – | – | –
40 | CCN1CCC[C@H]1CNC(=O)c1c(O)c(Cl)cc(Cl)c1OC [RACLOPRIDE] | – | 0.11 | 0.557 | – | – | – | – | –
41 | COc1ccc(C2CNC(=O)C2)cc1OC1CCCC1 (stereo not drawn) [ROLIPRAM] | – | 0.173 | 0.329 | – | – | – | – | –
42 | CN(C)CCOc1cc(NS(=O)(=O)c2c(Cl)cc(C(F)(F)F)cc2Cl)ccc1Cl [SB611812] | 2.99 | 0.0029 | 0.0024 | – | – | – | – | –
43 | CN1CCc2cc(Cl)c(O)cc2[C@@H](c2ccccc2)C1 [SCH-23390] | 2.5 | 0.0801 | 0.17 | – | – | – | – | –
44 | CN[C@H]1CC[C@@H](c2ccc(Cl)c(Cl)c2)c2ccccc21 [SERTRALINE] | 3.15 | 0.0146 | 0.02 | – | – | – | – | –
45 | Cc1ccsc1C(=CCCN1CCC[C@@H](C(=O)O)C1)c1sccc1C [TIAGABINE] | 1.49 | 0.051 | 0.0836 | – | – | – | – | –
46 | O=c1n(CCCN2CCN(c3cccc(Cl)c3)CC2)nc2ccccn12 [TRAZODONE] | 2.67 | – | 0.124 | – | 891 (≈ 331 µg/mL) | – | – | 0.03
47 | O=C(CC(c1ccccc1)c1ccccc1)N1CCN(C(c2ccccc2)c2ccccc2)CC1 [Z160] | – | 0.001 | 0.5 | – | – | – | – | –
48 | O=C1Cc2cc(CCN3CCN(c4nsc5ccccc45)CC3)c(Cl)cc2N1 [ZIPRASIDONE] | – | 0.001 | 0.003 | – | – | – | – | –
